Data published in patent US8119750B2, “Explosion taming surfactants for the production of perfluoropolymers” (3M Innovative Properties Company, priority 2006, dated 2012).
Marks after values point to notes of the source that are not given here.

Assay: Determination of bio-accumulation: urinary clearance pharmacokinetic study in rats
Conditions: male Sprague Dawley rats, 73 micro Moles per kg oral gavage, urine by fluorine NMR, exponential least squares curve fitting
Procedure: The perfluorinated and partially fluorinated carboxylates were evaluated for urinary clearance using a pharmacokinetic study in rats. The goal was to measure the total amount of parent compound eliminated via urinary output and estimate the rate of elimination.
The study utilized male Sprague Dawley rats, 6 to 8 weeks of age, and approximately 200 to 250 g body weight at study onset. The test compounds of table 2 were administered at a dose of 73 micro Moles per kg body weight in rats (N=3 animals per tested compound). All test compounds were prepared in sterile deionized water and given to rats via oral gavage. After test compounds administration, the rats were housed individually in metabolism cages for urine collection: 0 to 6 hours, 6 to 24 hours, 24 to 48 hours and 72 to 96 hours. Animals were observed throughout the study for clinical signs of toxicity. Gross necropsy was performed at the termination of each study (96 hours post-dose) with sera and liver samples being retained from each animal.
The concentration of the parent compound or metabolites thereof were quantitatively measured via fluorine NMR on each urine sample for each animal at each time point based on internally added standards.

| Structure (SMILES) | T ½ (h) (renal half-life) |
| --- | --- |
| N.O=C(O)C(F)(F)C(F)OC(F)(F)C(F)(F)C(F)(F)OC(F)(F)F (stereo not drawn) [Compound 1, CF3—O—CF2—CF2—CF2—O—CHF—CF2—COONH4] | 12 |
| N.O=C(O)C(F)OC(F)(F)C(F)(F)C(F)(F)OC(F)(F)F (stereo not drawn) [Compound 2, CF3—O—CF2—CF2—CF2—O—CHF—COONH4] | 11 |
| N.O=C(O)C(F)(F)C(F)OC(F)(F)C(F)(F)C(F)(F)F (stereo not drawn) [Compound 3, C3F7—O—CFH—CF2COONH4] | 11 |
| N.O=C(O)C(F)(F)C(F)(F)C(F)(F)C(F)(F)C(F)(F)OC(F)C(F)(F)F (stereo not drawn) [Compound 4, CF3—CFH—O—(CF2)5—COONH4] | 24 |
| N.O=C(O)C(F)(F)C(F)(F)C(F)(F)OC(F)C(F)(F)F (stereo not drawn) [Compound 5, CF3—CFH—O—(CF2)3—COONH4] | 8 |
| N.O=C(O)C(F)(F)C(F)(F)C(F)(F)C(F)(F)C(F)(F)C(F)(F)C(F)(F)F [Compound C-1, C7F15COONH4, reference compound] | ~550 |

Second part, the compound after the results:

| T ½ (h) (renal half-life) | Structure (SMILES) |
| --- | --- |
| 10 | N.O=C(O)C(F)(F)OC(F)(F)C(F)(F)C(F)(F)OC(F)(F)F [Compound C-2, CF3—O—(CF2)3—O—CF2—COONH4, reference compound] |
| 31 | N.O=C(O)C(F)(F)C(F)(F)OC(F)(F)C(F)(F)C(F)(F)C(F)(F)F [Compound C-3, C4F9—O—CF2—CF2—COONH4, reference compound] |

Same assay, conditions: male Sprague Dawley rats, 73 micro Moles per kg oral gavage; no parent compound observed in the urine

| T ½ (h) (renal half-life), based on elimination of the major metabolite C3F7—O—CHFCOO− | Structure (SMILES) |
| --- | --- |
| 13* h | N.O=C(O)COC(F)(F)C(F)OC(F)(F)C(F)(F)C(F)(F)F (stereo not drawn) [Compound 6, C3F7—O—CFH—CF2—O—CH2—COONH4] |
